# Patent publication US12624396B2, “Methods for alleviating facioscapulohumeral dystrophy (FSHD) by an antisense nucleic acid molecule inhibiting the expression of double homeobox 4 (DUX4)” (Fred Hutchinson Cancer Center, priority 2010, dated 2026)
# Entries after “also recorded” stand apart in the source; their conditions may differ.
# Tests used:
# [1] = system: DUX4 mRNA in FSHD fibroblasts; experiment: DUX4 mRNA in FSHD fibroblasts with beta-estradiol inducible MyoD, cycloheximide addition and washout; type: cell-based, human; conditions: MyoD induction, 38 hours in differentiation conditions, chx added, FIG. 24
# Source text: The 3-prime untranslated region (UTR) of the DUX4 mRNA has an unusual exon-intron structure. The translational stop codon is in the first exon, whereas the polyadenylation sequence is in the third exon. The separation of the translational stop codon from the polyadenylation site by two exon-intron junctions would be predicted to make this mRNA subject to translation dependent nonsense mediated decay.
# FSHD fibroblasts expressing low amounts of DUX4 mRNA were stably transduced with a beta-estradiol inducible MyoD so that addition of beta-estradiol will convert them to skeletal muscle, which after 96 hours of induction increases the steady-state levels of the DUX4 mRNA and activates expression of the MyoD target Mgn (compare lanes 1 and 2). […] Washout of the chx results in the rapid loss of the DUX4 mRNA, disappearing between 2 and 8 hrs of washout. The loss of DUX4 mRNA is associated with its translation since the DUX4 target PRAME 1 is induced as the DUX4 mRNA disappears.
# [2] = system: DUX4-fl mRNA in FSHD muscle cells; experiment: DUX4-fl mRNA in FSHD muscle cells treated with MAO inhibitors (RT-PCR); type: cell-based, human
# Source text: The monamine oxidase inhibitor pargyline has been reported to inhibit the activity of the LSD1 histone demethylase that demethylates H3K9.
# FIG. 22 graphically illustrates that pargyline decreases the amount of DUX4 mRNA in FSHD muscle cells.
# Middle panel is a no RT control and bottom panel is a GAPDH loading control.
SMILES,DUX4 mRNA level [1],"abundance of DUX4-fl mRNA ([2]; FSHD muscle cells expressing endogenous DUX4-fl mRNA, quantitative RT-PCR, FIG. 22)","amount of DUX4-fl mRNA ([2]; cultured FSHD muscle cells differentiated 48 hours in differentiation medium with varying amounts of pargyline, RT-PCR, FIG. 23)"
C[C@@H]1C[C@@H]([C@H](O)CC2CC(=O)NC(=O)C2)C(=O)[C@@H](C)C1 [cycloheximide],accumulation of the DUX4 mRNA; also recorded: significant increase in DUX4 mRNA,,
C#CCN(C)Cc1ccccc1 [pargyline],,suppresses the expression of DUX4 mRNA; also recorded: decreases the abundance of DUX4-fl mRNA in a dose-dependent manner,dose-dependent inhibition of DUX4 mRNA expression
